In brackets after ≈: the same amount, converted by molar mass. Blank lines part the entries; values can stand above or below the molecule they belong to.
Columns and labels:
[1] = (§1) Cytotoxicity against human MT2 cells assessed as reduction in cell viability incubated for 4 days by XTT assay; assay type: toxicity, cell-based; conditions: MT2 cells, time 4 day
[2] = Selectivity index, ratio of CC50 for cytotoxicity against human MT2 cells to EC50 for antiviral activity against HIV-1 NLRep-Rluc infected in human MT2 cells; assay type: toxicity, cell-based; conditions: read-out: Ratio CC50/EC50
[3] = test system: Human immunodeficiency virus 1; experiment: Antiviral activity against HIV-1 NLRep-Rluc infected in human MT2 cells assessed as inhibition of viral growth incubated for 96 hrs by renilla luciferase assay; assay type: functional, organism-based
MT2 = experiment: as §1; assay type: toxicity, cell-based; conditions: mt2, 96 h, 96 h, time 4 day
[4] = Clearance in Sprague-Dawley rat at 1 mg/kg, iv and measured upto 96 hrs by LC-MS/MS analysis; assay type: ADME, organism-based; conditions: in vivo
[5] = Solubility of the compound at pH 6.5 buffer; assay type: physicochemical
[6] = Toxicity in male Beagle dog assessed as hyperplasia of Kupffer cells at 100 mg/kg, po QD for 7 days by microscopy; assay type: organism-based, Canis lupus familiaris; conditions: in vivo, 168 h, time 7 day
[7] = Plasma concentration in Wistar Han rat at 20 mg/kg, SC and measured at 21 days by LC-MS/MS analysis; assay type: ADME, organism-based; conditions: time 21 day
[8] = Cmax in female Beagle dog at 100 mg/kg, po QD and measured after 1 day by LC-MS/MS analysis; assay type: ADME, organism-based, Canis lupus familiaris; parameters: dose 100 mg/kg, time 1 day, route po; conditions: in vivo
[9] = Toxicity in male Beagle dog assessed as increase in mitotic figures in hepatocytes at 100 mg/kg, po QD for 7 days by microscopy; assay type: organism-based, Canis lupus familiaris; conditions: in vivo, 168 h, time 7 day
[10] = Half life in Beagle dog plasma at 5 mg/kg,SC and measured after 21 days by LC-MS/MS analysis; assay type: ADME, organism-based, Canis lupus familiaris; conditions: time 21 day
[11] = Solubility of the compound in FaSSIF at pH 6.5; assay type: physicochemical
[12] = Half life in Wistar Han rat plasma at 20 mg/kg, IM and measured after 21 days by LC-MS/MS analysis; assay type: ADME, organism-based; conditions: time 21 day
[13] = AUC (0 to 24) in male Beagle dog at 100 mg/kg, po QD and measured after 7 days by LC-MS/MS analysis; assay type: ADME, organism-based, Canis lupus familiaris; parameters: dose 100 mg/kg, time 7 day, route po; conditions: in vivo
[14] = AUC (0 to 24) in female Beagle dog at 100 mg/kg, po QD and measured after 7 days by LC-MS/MS analysis; assay type: ADME, organism-based, Canis lupus familiaris; parameters: dose 100 mg/kg, time 7 day, route po; conditions: in vivo
[15] = Toxicity in female Beagle dog assessed as change in ALT level at 100 mg/kg, po QD for 7 days relative to baseline pretreatment; assay type: organism-based, Canis lupus familiaris; conditions: in vivo, 168 h, time 7 day
[16] = Plasma concentration in Wistar Han rat at 20 mg/kg, IM and measured at 21 days by LC-MS/MS analysis; assay type: ADME, organism-based; conditions: time 21 day
[17] = Toxicity in female Beagle dog assessed as change in AST level at 100 mg/kg, po QD for 7 days relative to baseline pretreatment; assay type: organism-based, Canis lupus familiaris; conditions: in vivo, 168 h, time 7 day
[18] = Half life in Wistar Han rat plasma at 1 mg/kg,iv and measured upto 96 hrs by LC-MS/MS analysis; assay type: ADME, organism-based
[19] = Plasma concentration in Beagle dog at 5 mg/kg, IM and measured after 10 days by LC-MS/MS analysis; assay type: ADME, organism-based, Canis lupus familiaris; conditions: time 10 day
[20] = AUC (0 to 24) in female Beagle dog at 100 mg/kg, po QD and measured after 1 day by LC-MS/MS analysis; assay type: ADME, organism-based, Canis lupus familiaris; parameters: time 1 day, dose 100 mg/kg, route po; conditions: in vivo
[21] = Toxicity in male Beagle dog assessed as fold increase in GLDH level […] at 100 mg/kg, po QD for 7 days relative to baseline pretreatment; assay type: organism-based, Canis lupus familiaris; conditions: in vivo, 168 h, time 7 day
[22] = Toxicity in male Beagle dog assessed as fold increase in AST level […] at 100 mg/kg, po QD for 7 days relative to baseline pretreatment; assay type: organism-based, Canis lupus familiaris; conditions: in vivo, 168 h, time 7 day
[23] = Solubility of compound in FeSSIF at pH 5; assay type: physicochemical
[24] = Solubility of the compound at pH 2 buffer; assay type: physicochemical
[25] = Drug metabolism in Beagle dog plasma assessed as metabolite formation at 100 mg/kg, po for 7 days by LC-MS/MS analysis; assay type: ADME, organism-based, Canis lupus familiaris; conditions: in vivo, 168 h, time 7 day
[26] = Cmax in female Beagle dog at 100 mg/kg, po QD and measured after 7 days by LC-MS/MS analysis; assay type: ADME, organism-based, Canis lupus familiaris; parameters: time 7 day, dose 100 mg/kg, route po; conditions: in vivo
[27] = Toxicity in male Beagle dog assessed as fold increase in ALP level […] at 100 mg/kg, po QD for 7 days relative to baseline pretreatment; assay type: organism-based, Canis lupus familiaris; conditions: in vivo, 168 h, time 7 day
[28] = Plasma concentration in Beagle dog at 5 mg/kg, SC and measured after 10 days by LC-MS/MS analysis; assay type: ADME, organism-based, Canis lupus familiaris; conditions: time 10 day
[29] = Half life in Wistar Han rat plasma at 20 mg/kg, SC and measured after 21 days by LC-MS/MS analysis; assay type: ADME, organism-based; conditions: time 21 day
[30] = Cmax in male Beagle dog at 100 mg/kg, po QD and measured after 1 day by LC-MS/MS analysis; assay type: ADME, organism-based, Canis lupus familiaris; parameters: time 1 day, dose 100 mg/kg, route po; conditions: in vivo
[31] = AUC (0 to 24) in male Beagle dog at 100 mg/kg, po QD and measured after 1 day by LC-MS/MS analysis; assay type: ADME, organism-based, Canis lupus familiaris; parameters: dose 100 mg/kg, time 1 day, route po; conditions: in vivo
[32] = Toxicity in female Beagle dog assessed as change in GLDH level at 100 mg/kg, po QD for 7 days relative to baseline pretreatment; assay type: organism-based, Canis lupus familiaris; conditions: in vivo, 168 h, time 7 day
[33] = Toxicity in male Beagle dog assessed as fold increase in ALT level […] at 100 mg/kg, po QD for 7 days relative to baseline pretreatment; assay type: organism-based, Canis lupus familiaris; conditions: in vivo, 168 h, time 7 day
[34] = Cmax in male Beagle dog at 100 mg/kg, po QD and measured after 7 days by LC-MS/MS analysis; assay type: ADME, organism-based, Canis lupus familiaris; parameters: dose 100 mg/kg, time 7 day, route po; conditions: in vivo
[35] = Toxicity in female Beagle dog assessed as change in ALP level at 100 mg/kg, po QD for 7 days relative to baseline pretreatment; assay type: organism-based, Canis lupus familiaris; conditions: in vivo, 168 h, time 7 day
[36] = Toxicity in female Beagle dog assessed as change in TBA level at 100 mg/kg, po QD for 7 days relative to baseline pretreatment; assay type: organism-based, Canis lupus familiaris; conditions: in vivo, 168 h, time 7 day
[37] = Toxicity in male Beagle dog assessed as fold increase in TBA level […] at 100 mg/kg, po QD for 7 days relative to baseline pretreatment; assay type: organism-based, Canis lupus familiaris; conditions: in vivo, 168 h, time 7 day
[38] = Half life in Beagle dog plasma at 5 mg/kg,IM and measured after 21 days by LC-MS/MS analysis; assay type: ADME, organism-based, Canis lupus familiaris; conditions: time 21 day
[39] = Solubility of the compound in FaSSGF at pH 1.6; assay type: physicochemical

SMILES: COc1ccc2nc([C@H](Cc3cc(F)cc(F)c3)NC(=O)Cn3nc(C(F)F)c4c3C(F)(F)[C@@H]3C[C@H]43)n(-c3ccc(Cl)c4c(NS(C)(=O)=O)nn(C)c34)c(=O)c2c1 (stereo in doubt; 12c)
CC50 at 96 h [1]: > 20000 nM | selectivity ratio [2]: > 1000 | EC50 ([3]; mt2): 0.15 nM

clearance [4]: 8.3 mL/min/kg
SMILES: COc1ccc2c(=O)n(-c3ccc(Cl)c4c(NS(C)(=O)=O)nn(C)c34)c([C@H](Cc3cc(F)cc(F)c3)NC(=O)Cn3nc(C(F)F)c4c3C(F)(F)[C@@H]3C[C@H]43)nc2c1 (stereo in doubt; 12b)
CC50 (MT2): > 20000 nM | selectivity ratio [2]: > 1000 | EC50 ([3]; mt2): 0.058 nM

solubility [5]: < 1 µg/mL | concentration at 504 h [7]: 10 ng/mL | Cmax [8]: 344 ng/mL | half-life [10]: 39 h | solubility [11]: < 1 µg/mL | half-life [12]: 39 h | AUC at 168 h [13]: 299000 ng·h/mL | AUC at 168 h [14]: 6780 ng·h/mL | concentration at 504 h [16]: 10 ng/mL | half-life [18]: 3.2 h | concentration at 240 h [19]: < 2.2 ng/mL | AUC at 24 h [20]: 1360 ng·h/mL | solubility [23]: 22 µg/mL (≈ 24 µM) | solubility [24]: < 1 µg/mL | Drug metabolism [25]: Metabolite_Detected | Cmax [26]: 1320 ng/mL | clearance [4]: 8.9 mL/min/kg | concentration at 240 h [28]: < 2.2 ng/mL | half-life [29]: 39 h | Cmax [30]: 451 ng/mL | AUC at 24 h [31]: 3710 ng·h/mL | Cmax [34]: 13600 ng/mL | half-life [38]: 39 h | solubility [39]: < 1 µg/mL
SMILES: C[C@@H]1CN(c2ccc3c(=O)n(-c4ccc(Cl)c5c(NS(C)(=O)=O)nn(C)c45)c([C@H](Cc4cc(F)cc(F)c4)NC(=O)Cn4nc(C(F)F)c5c4C(F)(F)[C@@H]4C[C@H]54)nc3c2)C[C@H](C)O1
Activity [6]: Toxic | Activity [9]: Toxic | Activity [15]: Non-Toxic | Activity [17]: Non-Toxic | fold change (FC) [21]: 94 | fold change (FC) [22]: 4.8 | fold change (FC) [27]: 4.9 | Activity [32]: Non-Toxic | fold change (FC) [33]: 87 | EC50 ([3]; Human immunodeficiency virus 1, NLRep-Rluc, MT2, 96 h): 0.039 nM | Activity [35]: Non-Toxic | Activity [36]: Non-Toxic | fold change (FC) [37]: 3

clearance [4]: 30 mL/min/kg
SMILES: Cn1nc(NS(C)(=O)=O)c2c(Cl)ccc(-n3c([C@H](Cc4cc(F)cc(F)c4)NC(=O)Cn4nc(C(F)F)c5c4C(F)(F)[C@@H]4C[C@H]54)nc4ccccc4c3=O)c21 (stereo in doubt; 12a)
CC50 (MT2): > 20000 nM | selectivity ratio [2]: > 1000 | EC50 ([3]; mt2): 0.049 nM
